Results as given in US20120157402A1, “METHODS FOR TREATING BRAIN TUMORS” (priority 2009, published 2012).
Where two headings read alike, the source gives them in different places. Marks after values point to notes of the source that are not given here.

Key:
in vivo [1] = conditions: both, beagle, dog
Protocol: (§5) The L23 vehicle was used. […] All studies in the toxicology program were conducted according to GLP regulations.

[2] = Phase 1 multiple-dose study in healthy volunteers: pharmacokinetics (Table 28); assay type: in vivo; conditions: human, plasma, oral; for concentration at 24 h: 24 hours after first daily dose, read-out: C24 h; for AUC(0-t): read-out: AUC0-24; for Cmax: read-out: Cmax (after PM dose)
Protocol: The study was performed under the oversight of the French health authorities. The study was not performed under an IND.
Methods. The trial was a Phase 1, randomized, escalating multiple dose, single center study conducted in 2 stages.
Capsules contained 2 mg or 20 mg of active substance.
Capsules contained 20 mg or 25 mg of active substance.
Noncompartmental methods were used to compute Tmax, Cmax, and AUC. Dose proportionality and sex effect were evaluated using ANOVA on log transformed PK parameters using dose, sex, and dose by sex as fixed factors.

[3] = Single-dose oral toxicity study in rats; conditions: Sprague Dawley, rat, in vivo, single oral gavage, read-out: NOAEL for 1 day of dosing
Protocol: (§1) The L23 vehicle was used.
Because maximal exposure occurred at 100 mg/kg, this dose is considered the NOAEL for 1 day of dosing.

[4] = Oral pharmacokinetics in mice; assay type: in vivo; conditions: mouse, plasma, 1-mg/kg dose level, Day 1, read-out: Plasma trough concentration at 24 hours (minimal mean target plasma concentration)
Protocol: The pharmacokinetic evaluations in mice were adjuncts to the primary pharmacodynamic xenograft studies. The evaluations in rats included toxicokinetic assessments in single-dose, 7-day, and 28-day toxicology studies as well as a mass-balance study after a single oral dose of ^14C-Compound #10. The evaluations in dogs included toxicokinetic assessments in 7-day and 28-day toxicology studies. In the studies performed, rodents were dosed once daily with Compound #10 formulated in vehicle and administered via oral gavage.

in vivo [5] = conditions: beagle, dog
Protocol: as §5

[6] = Trough plasma concentrations of Compound #10 in HT1080 xenograft mice (HPLC-MS/MS); assay type: in vivo; conditions: athymic nude, mouse, oral, 1 mg/kg BID
in vivo [7] = conditions: Sprague Dawley, rat
Protocol: as §5

[8] = 7-day oral toxicity study in rats; conditions: Sprague Dawley, rat, in vivo
Protocol: as §1
Maximal exposures occurred at a dose of 120 mg/kg/day.

HT1080 xenografts [9] = test: Tumor growth in nude mice bearing HT1080 xenografts; assay type: in vivo, athymic nude mice
Protocol: (§2) In all of these experiments, HT1080 cells (5×10^6 cells/mouse) were implanted subcutaneously in male athymic nude mice. When tumors had become established, mice were divided into groups (10 mice/group). […] Tumor size was measured by calipers at the beginning and end of treatment. At the completion of Compound administration, the mice were sacrificed, and excised tumors were assayed by ELISA for intratumoral VEGF or other angiogenic factors using methods analogous to those described in Section 9.1.1.1.
Experimental Study Design. HT1080 cells (5×10^6 cells/mouse) were implanted subcutaneously in male athymic nude mice.
(§3) Tumor size was measured using calipers at periodic intervals during the study (data shown in Section 9.2.2). […] The study was ended after 18 days, when the vehicle treated tumors reached a mean volume of ˜1755 mm^3. […] Mice were sacrificed, and excised tumors were homogenized in buffer containing protease inhibitors. Both terminal intratumoral and pathologic plasma human VEGF levels were measured using an ELISA that recognizes human VEGF121 and VEGF165 (as described in Section 9.1.1.1). Intratumoral VEGF levels were normalized to the total tumor protein concentration, while pathologic plasma human VEGF levels were expressed in pg/mL of plasma.
Experimental Design. HT1080 cells (5×10^6 cells/mice) were implanted subcutaneously into male athymic nude mice. Treatment with vehicle alone or Compound 1205 was initiated when the median tumor volume was approximately 311±88 mm^3. Table 7 and Table 9 (study design #21 and #23) provide the study design for assessing tumor and plasma pathologic VEGF concentrations—each group in each study included eight (8) mice. When the tumors in vehicle-treated mice had reached the target size of ˜1200 mm^3 for study #21 and ˜1500 mm^3 for study #23, all mice in the study were sacrificed, and excised tumors were homogenized in buffer containing protease inhibitors. Both intra-tumor and pathologic plasma human VEGF levels were measured using an ELISA that recognizes human VEGF121 and VEGF165. Intra-tumor VEGF levels were normalized to the total tumor protein concentration and pathologic plasma VEGF levels were expressed in pg/mL. Because smaller tumors produce less VEGF per mg of tumor protein, intra-tumor VEGF levels were normalized to tumor size.
Experimental Design. HT1080 cells (5×10^6 cells/mouse) were implanted subcutaneously in male athymic nude mice. […] For comparison, Compound #10 was included in this study.
(§4) Experimental Design. HT1080 cells (5×10^6 cells/mouse) were implanted subcutaneously in male athymic nude mice.
Tumor size was measured by calipers immediately pre-treatment and at the time of sacrifice on Day 1, 2, or 3 (5 mice per group per day). At sacrifice, the plasma was collected for assay of pathologic human VEGF concentration using an ELISA that recognizes human VEGF121 and VEGF165 (as described in Section 9.1.1.1).

D245MG-PR cells = test: D245MG-PR (procarbazine-resistant) lethality model of GBM, monotherapy and with temozolomide; assay type: in vivo, Balb/C nu/nu mice; conditions: Cpd #10 10 mg/kg oral QD from Day 3; TMZ 250 mg/kg IP from Day 5 (control 70 days)
Protocol: Forty (40) female Balb/C nu/nu mice at least 6 weeks of age but not more than 12 weeks at study initiation, weighing at study initiation 18-28 g, were implanted intracranially. D245MG-PR cells (procarbazine-resistant cells derived from an adult human GBM tumor) in a medium using a 25-gauge needle. Mice were anesthetized with Ketamine/Rompun cocktail prior to IC implantation. The day of tumor cell implantation was designated as Day 0. Animals were randomly assigned to treatment groups (10 mice per treatment group).
Mice in Group 1 were administered L21 vehicle alone orally once per day beginning on Day 3. […] Mice in Group 3 were administered 250 mg/kg TMZ intraperitoneally (IP) beginning on Day 5.
Body weights were measured the day that dosing was initiated and once a week thereafter. Observations were made on animals that died or were sacrificed at an unscheduled interval. Animals were sacrificed if moribund.

[10] = tested on: human VEGF121 and VEGF165; test: Intratumoral and plasma human VEGF (ELISA) in nude mice bearing HT1080 xenografts; assay type: in vivo, athymic nude mice; conditions: Day 1; Compound #10 10 mg/kg oral QD, doxorubicin 6 mg/kg IP, bevacizumab 5 mg/kg IP single bolus
Protocol: as §2
as §3, with “Intratumoral VEGF levels were normalized to the total tumor protein concentration, while pathologic plasma human VEGF levels were expressed in pg/mL of plasma.” left out
Experimental Design. […] Both intra-tumor and pathologic plasma human VEGF levels were measured using an ELISA that recognizes human VEGF121 and VEGF165. […]
Tumor size was measured by calipers immediately pre-treatment and at the time of sacrifice on Day 1, 2, or 3 (5 mice per group per day). […]

HT1080 xenografts [11] = test: BrdU labeling of tumor cells from HT1080 xenografts in nude mice; assay type: in vivo, athymic nude mice; conditions: Days 1-3; Compound #10 10 mg/kg oral QD, doxorubicin, bevacizumab
Protocol: as §4
The mice were sacrificed 3 hours later, and the tumors collected. A single cell suspension was prepared from the tumor cells. The cells were permeabilized and an antibody to BrdU was used to stain cells that had entered S phase during the labeling period. The proportion of cells actively synthesizing DNA was determined by cell sorting.

HT1080 cells = test: Cell cycle analysis in HT1080 cells, propidium iodide flow cytometry (Table 24; reversibility); assay type: cell-based, human; conditions: tumor cells, data not shown
Protocol: Experimental Design. […] After treatment, cells were trypsinized, and stained with propidium iodide (PI) dye to measure DNA content of individual cells by flow cytometry. Output comprised histograms showing relative DNA content in 10,000 cells.
While compounds which cause greater than 20% of the cells to accumulate in S-phase at 100 nM are considered active, a larger percentage of cells may be accumulated in S-phase at lower doses depending on the Compound, as shown in FIG. 12 for example.

[12] = tested on: soluble VEGF121 and VEGF165; test: Inhibition of soluble VEGF production in human tumor cell lines, ELISA EC50 (Table 4); assay type: cell-based; conditions: tumor cells, data not shown
Protocol: Study Design. […] In these experiments, cultures were established under normoxic conditions (21% oxygen). […] Cells requiring induction of VEGF production were incubated under hypoxic conditions (1% oxygen). At the completion of treatment, the conditioned media were collected and assayed by ELISA (as described in Section 9.1.1.1) for soluble VEGF121 and VEGF165 isoforms; results were calculated as percentage inhibition relative to vehicle treated controls. EC50 values were calculated from the dose concentration response curves.

[13] = both sexes, 0.3 mg/kg, Stage 1, 0.3 mg/kg BID, Day 1, mean
[14] = both sexes, 0.3 mg/kg, Stage 1, 0.3 mg/kg BID, Day 7, mean
[15] = both sexes, 0.6 mg/kg, Stage 1, 0.6 mg/kg BID, Day 1, mean

## COc1ccc([C@H]2c3[nH]c4ccc(Cl)cc4c3CCN2C(=O)Oc2ccc(Cl)cc2)cc1 (racemic) [Compound #10]
In vivo [1]
  NOAEL at 28 days: 30 mg/kg/day
[2]; both sexes, 0.3 mg/kg BID, Stage 1, 0.3 mg/kg BID, Day 1, mean
  concentration at 24 h: 94 ng/mL
[2]; both sexes, 0.3 mg/kg BID, Stage 1, 0.3 mg/kg BID, Day 7, mean
  concentration at 24 h: 210 ng/mL
[2]; [13]
  AUC(0-t): 4310 ng·h/mL
  Cmax: 480 ng/mL
[2]; both sexes, 0.3 mg/kg, Stage 1, 0.3 mg/kg BID, Day 1, mean, read-out: Tmax (after PM dose)
  Tmax: 3.16 h
[2]; [14]
  AUC(0-t): 8440 ng·h/mL
  Cmax: 590 ng/mL
[2]; both sexes, 0.6 mg/kg BID, Stage 1, 0.6 mg/kg BID, Day 1, mean
  concentration at 24 h: 260 ng/mL
[2]; both sexes, 0.6 mg/kg BID, Stage 1, 0.6 mg/kg BID, Day 7, mean
  concentration at 24 h: 540 ng/mL
[2]; [15]
  AUC(0-t): 10100 ng·h/mL
  Cmax: 970 ng/mL
[2]; both sexes, 0.6 mg/kg, Stage 1, 0.6 mg/kg BID, Day 1, mean, read-out: Tmax (after PM dose)
  Tmax: 3.17 h
[2]; both sexes, 0.6 mg/kg, Stage 1, 0.6 mg/kg BID, Day 7, mean
  Cmax: 1160 ng/mL
[2]; both sexes, Stage 1 and Stage 2, read-out: Mean Tmax
  Tmax: ~3 h
[2]; both sexes, Stage 1, 0.6 mg/kg BID, Day 7, mean
  AUC(0-t): 18600 ng·h/mL
[2]; both, […], Stage 2, […] TID, Day 1, mean, read-out: Tmax (after PM dose)
  Tmax: 2.5 h
[2]; both, Stage 1, 1.2 mg/kg BID, Day 1, mean, read-out: Tmax (after PM dose)
  Tmax: 3 h
[3]
  NOAEL at 1 day: 100 mg/kg
[4]
  concentration at 24 h: 100 to 150 ng/mL
In vivo [5]
  NOAEL at 7 days: 60 mg/kg/day
[6]; 16 hours after the first day of dosing (n=3), read-out: Mean trough plasma concentration
  concentration at 16 h: 130 ng/mL
[6]; 16 hours after the first day of dosing (n=3), read-out: Mean trough plasma concentration (value in brackets)
  concentration at 16 h: 280 ng/mL
[6]; 16 hours after the last dose on Day 18 (n=4), read-out: Steady state mean trough plasma concentration
  concentration at 16 h: 820 ng/mL
In vivo [7]
  NOAEL at 28 days: 12 mg/kg/day
[8]; female rats
  NOAEL at 7 days: 120 mg/kg/day
[8]; male rats
  NOAEL at 7 days: 40 mg/kg/day

## O=C(Oc1ccc(Cl)cc1)N1CCc2c([nH]c3ccc(Cl)cc23)[C@@H]1c1ccc(OCC[C@H](O)CO)cc1 [Compound 1205]
HT1080 xenografts [9]; Study 21, 3 mg/kg QD, Day 14
  Mean difference in tumor growth rate at the Day that the vehicle-treated tumors taken off study (%): 80%**
HT1080 xenografts [9]; Study 22, 0.5 mg/kg QD, Day 11
  Mean difference in tumor growth rate at the Day that the vehicle-treated tumors taken off study (%): 62%**
HT1080 xenografts [9]; Study 22, 3 mg/kg QD, Day 11
  Mean difference in tumor growth rate at the Day that the vehicle-treated tumors taken off study (%): 75%**
HT1080 xenografts [9]; Study 23, 1 mg/kg QD, Day 14
  Mean difference in tumor growth rate at the Day that the vehicle-treated tumors taken off study (%): 59%**
HT1080 xenografts [9]; Study 24a, 10 mg/kg QD, Day 11
  Mean difference in tumor growth rate at the Day that the vehicle-treated tumors taken off study (%): 76%**
HT1080 xenografts [9]; Study 24b, 0.3 mg/kg QD, Day 15
  Mean difference in tumor growth rate at the Day that the vehicle-treated tumors taken off study (%): 28% ^

## Cn1nnc2c(C(N)=O)ncn2c1=O [TEMODAR, temozolomide]
D245MG-PR cells
  Median survival time: 86 days

## COc1cccc2c1C(=O)c1c(O)c3c(c(O)c1C2=O)C[C@@](O)(C(=O)CO)C[C@@H]3O[C@H]1C[C@H](N)[C@H](O)[C@H](C)O1 [doxorubicin]
[10]
  Pathologic plasma human VEGF levels vs control: numerically lower than in control animals by Day 1
HT1080 xenografts [11]
  BrdU staining of tumor cells (fraction in S phase): decreased the percentage of tumor cells staining with BrdU

## NC(Cn1ccc(=O)c(O)c1)C(=O)O (centres unmarked) [mimosine]
HT1080 cells
  Cell cycle delay or prolongation: does not delay or prolong the cell cycle or reduce VEGF production
[12]
  VEGF production: does not delay or prolong the cell cycle or reduce VEGF production
